The text below walks through data of patent US12076340B2, “Use of trientine to deliver copper to ischemic tissue” (INNOLIFE CO., LTD., priority 2015, dated 2024).

Test [1] relates to Sprague-Dawley rats with pathologic cardiac hypertrophy. Here is the method:
This example describes an in vivo experiment for assessing efficacy of the trientine therapy in Sprague-Dawley rats with pathologic cardiac hypertrophy. The rat model of pathologic cardiac hypertrophy was established by an ascending aortic constriction operation.
The rats were sedated by intraperitoneal injection of 10% chloral hydrate ([…]) for echocardiography measurements. At 4 months after the aortic constriction operation and at 1, 3 and 5 weeks after the trientine treatment, a series of echocardiograms were performed using an 11.5-MHz transducer (Vivid 7 Dimension, GE). Interventricular septum depth (IVSD) and left ventricular posterior wall depth (LVPWD) were obtained using two-dimensional mode by taking measurements of the short-axis cross-sectional areas and the left ventricular length.
The ejection fraction (EF) and shortening fraction (FS) of the left ventricular were evaluated with the Simpson's single-plane method. Left-ventricular end-diastolic volume (LVEDV), end-systolic volume (LVESV), end-diastolic interior diameter (LVIDd) and end-systolic interior diameter (LVIDs) were directly recorded. EF and FS were calculated according to the following formulas: EF=(LVEDV−LVESV)/LVEDV×100%, FS=(LVIDd−LVIDs)/LVIDd×100%
(§1) The aortic ascending constriction (AAC) group was divided into three groups: a control group (NS group) and two trientine treatment groups (Tr(H) group and Tr(L) group). Rats in the sham group were subjected to the same surgical procedure except for the steps of the aortic ascending constriction. The sham group rats were also divided into three groups: a control group (NS group) and two trientine treatment groups (Tr(H) group and Tr(L) group). Rats in the control groups were treated with a saline solution. Trientine was administered orally twice a day in the trientine treatment groups. Two doses of trientine (dose calculated based on trientine dihydrochloride) were administered, […]. The treatment was continued for 6 weeks.
(§2) Cardiac morphology and functions were evaluated by echocardiography, and plasma copper concentrations were measured (i.e. blood detection) to assess therapeutic efficacy of the trientine treatments according to the schedule shown in FIG. 7.

Test [2] shares this test system. Conditions: AAC rats, trientine treatment for 6 weeks, AAC-Tr(H) and AAC-Tr(L) combined; FIG. 10A. Here is the method:
as §1, §2
Tissue samples were freshly frozen and stored at −80° C. before lyophilization. […] Ultrapure water was added to each vessel to dilute HNO3 to 2% for subsequent analyses of copper concentrations.

Test [3] has as its system Rhesus monkey model of heart failure. The following applies: 18 mg/kg/day oral two times daily, eight weeks; untreated group decreased; FIG. 12. Here is the method: The ejection fraction (EF) of the left ventricular was evaluated with the Simpson's single-plane method. Left-ventricular end-diastolic volume (LVEDV) and end-systolic volume (LVESV) were directly recorded, and EF was calculated using as follows: EF=(LVEDV−LVESV)/LVEDV×100%.
(§3) Trientine treatment was subsequently conducted. In the trientine-treated group, trientine was administered to each monkey orally two times daily. The dose of trientine was 18 mg/kg/day. This treatment was continued for eight weeks. […] Cardiac functions and morphology were evaluated according to the schedule shown in FIG. 11 to assess therapeutic efficacy of trientine.

The test system is the same in test [4]. Conditions: 18 mg/kg/day oral, eight weeks; FIG. 13. On the procedure: as §3
Tissue samples were freshly frozen and stored at −80° ° C. before lyophilization. […] Ultrapure water was added to each vessel to dilute HNO3 to 2% for subsequent analyses of copper concentrations. Copper concentrations were determined by graphite furnace atomic absorption spectrophotometry (ICE3500, Thermo) according to the program shown in Table 1 of Example 3.
Copper concentration in the myocardium was determined by atomic absorption spectroscopy.

Test [5] has as its system mouse model of myocardial ischemic infarction. Conditions: 4 weeks. On the procedure:
(§4) In this experiment, a mouse model of myocardial ischemic infarction was established by a permanent coronary artery ligation operation.
(§5) Trientine treatment was administered to four groups of modelized mice via intragastric route twice a day at a dose of 16.75, 33.49, 55.94, or 78.25 mg/kg per day. This treatment was continued for 4 weeks.
Cardiac functions were evaluated by echocardiography to assess therapeutic efficacy of trientine. All mice were subjected to transthoracic echocardiographic evaluation with a 12 MHz transducer (i13L, Vivid7, GE Ultrasound). The ejection fraction (EF) of the left ventricular was evaluated with the Simpson's single-plane method. Left-ventricular end-diastolic volume (LVEDV) and end-systolic volume (LVESV) were directly recorded, and EF was calculated using as follows: EF=(LVEDV−LVESV)/LVEDV×100%.

For test [6] the test system is unchanged. On the procedure:
as §4, §5
Tissue samples were freshly frozen and stored at −80° C. before lyophilization. […] Ultrapure water was added to each vessel to dilute HNO3 to 2% for subsequent analyses of copper concentrations. Copper concentrations were determined by graphite furnace atomic absorption spectrophotometry (ICE3500, Thermo) according to the program shown in Table 1 of Example 3.

Setting [7] is: AAC rats, oral twice a day, after 3 weeks of treatment.

Structures are written as SMILES.

`NCCNCCNCCN` [trientine, triethylenetetramine]: in test [1] (AAC rats treated for 5 weeks), the “IVSD as compared to the sham groups” value is listed as “nearly normal” and the “LVPWD as compared to the sham groups” value is “nearly normal”. In addition, in test [1] (setting [7]), the “interventricular septum depth (IVSD)” value is “decreased significantly” and the “left ventricular posterior wall depth (LVPWD)” value is “decreased significantly”. The “IVSD values over time (continuous monitoring)” value in test [1] (treated AAC groups, control group increased steadily, FIG. 8A) is recorded as “significantly downward trend”. The “LVPWD values over time (continuous monitoring)” value in test [1] (treated AAC groups, control group increased steadily, FIG. 8B) is “significantly downward trend”. In addition, in test [1] (trientine-treated groups, untreated groups showed significant downward trend, FIG. 9A), the “left ventricular ejection fraction (EF)” value is reported as “did not fluctuate very significantly”. For the same molecule, the “left ventricular shortening fraction (FS)” value in test [1] (trientine-treated groups, untreated groups showed significant downward trend, FIG. 9B) is given as “did not fluctuate very significantly”. In addition, in test [2], the “copper concentrations in the heart tissues” value is “increased”. Further, the “left ventricular ejection fraction” value in test [3] was “increased significantly”. In addition, in test [4], the “copper concentration, border zone, compared to untreated group” value is “increased significantly”; the “copper concentration, infarcted area, compared to untreated group” value is on record as “increased significantly”; the “copper concentration, remote areas, treated vs untreated group” value was “comparable”. In test [5] (doses tested 16.75, 33.49, 55.94, 78.25 mg/kg per day), the “dose at which the improvement ratio of ejection fraction reached a peak” value came to 33.49 mg/kg per day. The “improvement of left ventricular ejection fraction at higher doses” value in test [5] (intragastric twice a day, FIG. 15) is reported as “decreased”. For the same molecule, the “cardiac function as measured by left ventricular ejection fraction, lower doses” value in test [5] (intragastric twice a day, 16.75-78.25 mg/kg per day, FIG. 15) was “improved”. For the same molecule, the “dose at which copper content in the infarct area was the highest” value in test [6] (doses tested 16.75, 33.49, 55.94, 78.25 mg/kg per day, 4 weeks) is listed as 33.49 mg/kg per day. The “copper content of the infarcted area or ejection fraction at higher doses than 33.49 mg/kg per day” value in test [6] (higher trientine doses tested (55.94, 78.25 mg/kg per day)) is listed as “no further improvement”. Besides, the “copper concentration in the infarcted area” value in test [6] (intragastric twice a day, 4 weeks, FIG. 16) is recorded as “increased significantly”.
